Test results taken from patent publication US20140357706A1, “Stearate Compounds” (THE UAB RESEARCH FOUNDATION, priority 2011, published 2014).

How the values were obtained:
3T3L1 preadipocytes = experiment: Cell death and apoptosis of 3T3L1 preadipocytes (trypan blue, LDH, flow cytometry); format: cell-based, mouse; settings: 50 μM, vs control
Description: 50 μM of stearate, oleate or linoleate was used to treat 3T3L1 cells as this concentration is centered within the normal range for non-esterified stearate in the plasma of humans. Stearate, oleate, or linoleate was loaded onto fatty acid free BSA according to the method reported by Spector and Hoak (Spector and Hoak, 1969). Briefly, stearate (0.5 g) was dissolved in chloroform (100 mL) and mixed well with 10 g diatomaceous earth in a 1 liter flask. The mixture was stirred and dried under nitrogen until powder. Fatty acid free BSA (1 g) was dissolved in 100 mL with DMEM without phenol red and mixed with 3 g of the stearate/diatomaceous earth mixture and stirred for 30 minutes. The stearate/BSA solution was filtered through a 0.45 μm filter, and adjusted to pH 7.4. The concentration of stearate in the solution was detected by use of a NEFA C kit. Oleic and linoleate were loaded in the same way. […] Before the treatment with fatty acid, 3T3L1 preadipocytes were grown to 100%, and were starved in 2% FBS medium for 24 hours.
After treatment, 3T3L1 cells were harvested, washed with cold PBS, and then resuspended in 100 μl annexin-binding buffer (50 mM HEPES, 700 mM NaCl, 12.5 mM CaCl2, pH 7.4). Cell density was determined, and the cells were diluted to 10^6 cells. Then 5μL of Alex Fluo 488 annexin V and 1 μL propidium iodide (PI) were added. Cells were gently oscillated and incubated for 15 min at room temperature. After adding 400 μL of binding buffer to each tube, cells were kept on ice and analyzed by flow cytometry within 1 hour. Cells that stained positive for Alex Fluo 488 annexin V and negative for PI were considered to be apoptotic. Cells that stained positive for both Alex Fluo 488 annexin V and PI were considered either in the end stage of apoptosis, or necrosis. Cells that stained negative for both Alex Fluo 488 annexin V and PI were considered alive and not undergoing measurable apoptosis. A BD LSR II flow cytometer from Becton Dickinson was used in all flow experiments and the data were analyzed with BD FACSDiva™ software V.6.1.3.
Lactate dehydrogenase (LDH) release was measured using a cytotoxicity detection kit, according to the manufacture's protocol. After 3T3L1 cells were treated, 1 ml of cell culture medium was removed and centrifuged. The supernatant was retained for assaying. For determinations, 100 μl of LDH assay reagent was added to 100 μl of supernatant and incubated for 30 min at room temperature in the dark. Absorbance was measured at 490 nm. Background release from culture medium alone was subtracted before reporting. Maximum release was measured after adding 2% Triton X-100 to untreated cells.
After treatment, 3T3L1 cells were harvested and stained with 0.4% trypan blue solution. Cells in the four corners of the grid were counted under a conventional bright field binocular microscope.

caspase-3 = experiment: Caspase-3 activity assay in 3T3L1 preadipocytes; format: cell-based, mouse; settings: 48 hours treatment
Description: 50 μM of stearate, oleate or linoleate was used to treat 3T3L1 cells as this concentration is centered within the normal range for non-esterified stearate in the plasma of humans. Stearate, oleate, or linoleate was loaded onto fatty acid free BSA according to the method reported by Spector and Hoak (Spector and Hoak, 1969). Briefly, stearate (0.5 g) was dissolved in chloroform (100 mL) and mixed well with 10 g diatomaceous earth in a 1 liter flask. The mixture was stirred and dried under nitrogen until powder. Fatty acid free BSA (1 g) was dissolved in 100 mL with DMEM without phenol red and mixed with 3 g of the stearate/diatomaceous earth mixture and stirred for 30 minutes. The stearate/BSA solution was filtered through a 0.45 μm filter, and adjusted to pH 7.4. The concentration of stearate in the solution was detected by use of a NEFA C kit. Oleic and linoleate were loaded in the same way. All experimental data on 3T3L1 cells were confirmed using fatty acid free BSA control solutions that were put through the same preparatory procedure described except for the fact that no fatty acid was added. Before the treatment with fatty acid, 3T3L1 preadipocytes were grown to 100%, and were starved in 2% FBS medium for 24 hours.
Caspase-3 activity was measured using the EnzCheck Capase-3 Activity Kit #1 according to the manufacturer's instructions (Molecular Probes Inc. Eugene, Oreg.).

ERK = experiment: Immunoblot of phosphorylated ERK in Hs578T cells; format: cell-based, human; settings: between 8 and 16 h post-stearate, sustained up to 24 h
Description: The concentration of stearate used to treat the Hs578T cells was 50 μM. When EGF was used, the concentration was 1 nM EGF. Before the treatment with stearate or EGF, cells were first starved for 24-48 hours. Stearate was loaded onto fatty acid-free bovine serum albumin (BSA) according to the method reported by Spector et al. (13); briefly, stearate (0.5 g) was dissolved in chloroform (100 ml) and mixed well with 10 g diatomaceous earth in a 1 liter flask. The mixture was stirred and dried under nitrogen until powder. BSA is a physiological carrier of fatty acids and was used to avoid the introduction of organic solvents to solutions coming into contact with cells. Fatty acid-free BSA (1 g) was dissolved in 100 ml with Dulbecco's modified Eagle's medium without phenol red and mixed with 3 g of the stearate/diatomaceous earth mixture with stirring for 45 min. The stearate/BSA solution was filtered through a 0.45 μm filter, and adjusted to pH 7.4. The concentration of stearate in the solution was detected with the NEFA C Kit from Wako Chemicals GmbH (Neuss, Germany). All experimental data on Hs578T cells were controlled using fatty acid-free BSA control solutions that were put through the same preparatory procedure described for the stearate/BSA solution except for the fact that no fatty acid was added.
Cells were treated as described above, and lysed with lysis buffer. […]

[1] = test system: human ovarian granulosa cells; settings: 50 μM for 3 days; cited from earlier work

Caspase-3 activity (caspase-3): increased significantly
SMILES: CCCCCCCCCCCCCCCCCC(=O)O [stearate, Stearic acid]
Percentage of dead cells (trypan blue) (3T3L1 preadipocytes; 48 hour treatment): significantly increased | Dead cells (flow cytometry) (3T3L1 preadipocytes; 48 hours): increase | Cytotoxicity (lactate dehydrogenase) (3T3L1 preadipocytes; after 24 hours): significantly increased | Apoptotic cells (flow cytometry) (3T3L1 preadipocytes): significantly increased | Phosphorylation of ERK (ERK): increased | Cell viability [1]: no decrease
